IC50 and Ki data for 15 molecules are collected here from ChEMBL document CHEMBL1909046, “DrugMatrix in vitro pharmacology data”.

By IC50 is commonly meant the concentration that gives 50% inhibition.

*1 amine or outer side, *2 acyl side, *3 side chain or, on linkers, in order; H or OH if unused. Where a SMILES comes first, the peptide text is derived from it. Bridges are numbered along the chain shown (N, C = ends). Roman numbers before positions name the chains, in order. [ ]: non-standard residue; d: D form. Actinocin(1to9) = Cc1c2oc3c(C)ccc(C(=O)[*:2])c3nc-2c(C(=O)[*:1])c(N)c1=O; NMeV = CN[C@H](C(=O)O)C(C)C; Sar = CNCC(=O)O

For assay [1], the target named is Aldo-keto reductase family 1 member B1 (Rattus norvegicus, UniProt P07943). In words: biochemical. The class given is tissue-based, Lens of camera-type eye.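 Note: inhibition of aldose reductase enzyme activity, measured with DL-glyceraldehyde as the substrate; in other assays of this panel Not Active means under 50% inhibition at 10 µM.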
Assay [2] has as its target C-C chemokine receptor type 5 (Homo sapiens, UniProt P51681). The class given is cell membranes, Membrane. Particulars: hek293. Note: in other assays of this panel Not Active means under 50% inhibition at 10 µM.
A short description of assay [3]: DRUGMATRIX: Glutamate, NMDA, Agonism radioligand binding (ligand: [3H] CGP-39653). The class given is cell membranes, Rattus norvegicus, Wistar, Cerebral cortex, Membrane. Particulars: Not Active = under 50% inhibition at 10 µM.
Assay [4] deals with T1, Cysteinyl leukotriene receptor 1 (Homo sapiens, UniProt Q9Y271).
T1 sequence (Q9Y271 whole entry): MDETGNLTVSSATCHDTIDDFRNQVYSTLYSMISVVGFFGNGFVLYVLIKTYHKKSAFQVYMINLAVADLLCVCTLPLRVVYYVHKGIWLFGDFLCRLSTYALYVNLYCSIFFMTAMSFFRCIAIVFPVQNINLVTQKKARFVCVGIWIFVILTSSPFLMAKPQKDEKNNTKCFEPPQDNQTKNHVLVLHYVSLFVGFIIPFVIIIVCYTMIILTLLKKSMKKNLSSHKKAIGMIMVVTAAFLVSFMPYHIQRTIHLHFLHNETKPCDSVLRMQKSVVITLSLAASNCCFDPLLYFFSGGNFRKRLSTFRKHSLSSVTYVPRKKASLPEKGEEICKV
The class given is cell membranes, CHO-K1, Membrane. Particulars: cho-k1.

The next assay concerns the target Melanocortin receptor 5 (Homo sapiens, UniProt P33032). The assay is classed as cell membranes, HEK293, Membrane. Particulars: hek293. Note: in other assays of this panel Not Active means under 50% inhibition at 10 µM.
Assay [5] is described as follows: DRUGMATRIX: Platelet-Derived Growth Factor (PDGF) radioligand binding (ligand: [125I] PDGF). The assay is classed as cell-based. As to conditions: nih3t3; Not Active = under 50% inhibition at 10 µM.
A short description of assay [6]: DRUGMATRIX: Potassium Channel [KATP] radioligand binding (ligand: [3H] Glyburide). Particulars: hit-t15; Not Active = under 50% inhibition at 10 µM. The assay is classed as cell membranes, Membrane.
The target in a further assay is T2, Adenosine receptor A1 (Homo sapiens, UniProt P30542).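 Note: radioligand binding assay at the adenosine A1 receptor, with DPCPX serving as the labelled ligand; in other assays of this panel Not Active means under 50% inhibition at 10 µM.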
T2 sequence (P30542 whole entry): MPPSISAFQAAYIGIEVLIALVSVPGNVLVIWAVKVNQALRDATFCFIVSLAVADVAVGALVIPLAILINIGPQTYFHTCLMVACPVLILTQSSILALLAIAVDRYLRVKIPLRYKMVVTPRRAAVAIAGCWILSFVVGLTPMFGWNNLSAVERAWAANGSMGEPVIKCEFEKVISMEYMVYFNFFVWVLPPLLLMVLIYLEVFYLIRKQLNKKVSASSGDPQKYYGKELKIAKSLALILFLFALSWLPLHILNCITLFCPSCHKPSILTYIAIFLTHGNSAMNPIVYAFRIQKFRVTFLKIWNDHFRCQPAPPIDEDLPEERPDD
The class given is cell membranes, CHO, Membrane. Particulars: cho.

C-C chemokine receptor type 5, sequence (P51681 whole entry): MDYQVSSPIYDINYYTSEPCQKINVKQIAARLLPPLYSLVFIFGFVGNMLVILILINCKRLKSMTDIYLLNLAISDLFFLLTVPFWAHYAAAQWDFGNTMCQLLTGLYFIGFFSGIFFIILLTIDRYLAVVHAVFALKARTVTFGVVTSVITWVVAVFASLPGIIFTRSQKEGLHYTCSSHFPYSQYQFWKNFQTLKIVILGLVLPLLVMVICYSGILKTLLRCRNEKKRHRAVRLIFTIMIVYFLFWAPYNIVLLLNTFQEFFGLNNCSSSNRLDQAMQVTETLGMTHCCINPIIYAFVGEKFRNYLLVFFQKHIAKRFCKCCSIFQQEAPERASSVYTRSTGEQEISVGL
Melanocortin receptor 5, sequence (P33032 whole entry): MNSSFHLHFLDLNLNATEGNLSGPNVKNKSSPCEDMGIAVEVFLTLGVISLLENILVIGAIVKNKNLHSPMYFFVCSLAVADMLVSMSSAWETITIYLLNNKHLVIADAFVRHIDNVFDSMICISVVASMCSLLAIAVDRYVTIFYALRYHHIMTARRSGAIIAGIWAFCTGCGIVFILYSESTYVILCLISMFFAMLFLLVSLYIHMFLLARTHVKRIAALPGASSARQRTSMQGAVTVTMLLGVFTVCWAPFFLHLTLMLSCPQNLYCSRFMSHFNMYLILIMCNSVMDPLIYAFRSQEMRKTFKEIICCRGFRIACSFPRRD

Regarding `CC(C)(C)NCC(O)c1cc(Cl)c(N)c(Cl)c1` (stereo not given) [CLENBUTEROL], the half-inhibitory concentration (IC50) result (in assay [1]; in assay [2]; in assay [3]; in assay [4]; against Melanocortin receptor 5; in assay [5]) was “Not Active” each time. Further, the IC50 result (in assay [6]; against Adenosine receptor A1) was “Not Active” each time. Further, the Ki result in assay [3], in assay [5] and in assay [6] was “Not Active” each time.

Take `CC(C)(Oc1ccc(Cl)cc1)C(=O)O` [CLOFIBRIC ACID]: the IC50 entry (in assay [1]; in assay [2]; in assay [3]; in assay [4]; on Melanocortin receptor 5; in assay [5]) was “Not Active” throughout. The 50% inhibitory concentration (IC50) result (in assay [6]; against Adenosine receptor A1) was “Not Active” in each case. Besides, the Ki result in assay [3], in assay [5] and in assay [6] was “Not Active” throughout.

In the case of `Clc1cccc(Cl)c1NC1=NCCN1` [CLONIDINE], the IC50 entry (in assay [1]; in assay [2]; in assay [3]; in assay [4]; at Melanocortin receptor 5; in assay [5]) was “Not Active” throughout. Also, the 50% inhibitory concentration (IC50) result (in assay [6]; against Adenosine receptor A1) was “Not Active” each time. Also, the Ki entry in assay [3], in assay [5] and in assay [6] was “Not Active” in each case.

As to `Cc1cc(C(C#N)c2ccc(Cl)cc2)c(Cl)cc1NC(=O)c1cc(I)cc(I)c1O` (stereo not given) [CLOSANTEL], the IC50 result (in assay [1]; in assay [2]; in assay [3]; in assay [4]; against Melanocortin receptor 5; in assay [5]) was “Not Active” in each case. Further, the IC50 entry (in assay [6]; on Adenosine receptor A1) was “Not Active” each time. Also, the Ki result in assay [3], in assay [5] and in assay [6] was “Not Active” in each case.

Regarding `Cc1onc(-c2ccccc2Cl)c1C(=O)N[C@@H]1C(=O)N2[C@@H]1SC(C)(C)[C@@H]2C(=O)O` [CLOXACILLIN], the IC50 entry (in assay [1]; in assay [2]; in assay [3]; in assay [4]; on Melanocortin receptor 5; in assay [5]) was “Not Active” throughout. For the same molecule, the IC50 entry (in assay [6]; at Adenosine receptor A1) was “Not Active” each time. The Ki result in assay [3], in assay [5] and in assay [6] was “Not Active” each time.

Turning to `CC1CC(OC(=O)C(O)c2ccccc2)CC(C)(C)C1` (stereo not given) [CYCLANDELATE], the IC50 entry (in assay [1]; in assay [2]; in assay [3]; in assay [4]; against Melanocortin receptor 5; in assay [5]) was “Not Active” in each case. The IC50 result (in assay [6]; at Adenosine receptor A1) was “Not Active” in each case. In addition, the Ki result in assay [3], in assay [5] and in assay [6] was “Not Active” throughout.

As for `Cc1c2oc3c(C)ccc(C(=O)N[C@@H]4C(=O)N[C@H](C(C)C)C(=O)N5CCC[C@H]5C(=O)N(C)CC(=O)N(C)[C@@H](C(C)C)C(=O)O[C@@H]4C)c3nc-2c(C(=O)N[C@@H]2C(=O)N[C@H](C(C)C)C(=O)N3CCC[C@H]3C(=O)N(C)CC(=O)N(C)[C@@H](C(C)C)C(=O)O[C@@H]2C)c(N)c1=O` [DACTINOMYCIN] (I: T[dV]P[Sar][NMeV] / II: T[dV]P[Sar][NMeV]; ester I:1-I:C, II:1-II:C; linker I:N-II:N via Actinocin(1to9)), the IC50 entry (in assay [1]; in assay [2]; in assay [3]; in assay [4]; at Melanocortin receptor 5; in assay [5]) was “Not Active” throughout. The IC50 entry (in assay [6]; against Adenosine receptor A1) was “Not Active” in each case. The Ki result in assay [3], in assay [5] and in assay [6] was “Not Active” each time.

With `Cc1c(O)c(=O)ccn1C` [DEFERIPRONE], the IC50 entry (in assay [1]; in assay [2]; in assay [3]; in assay [4]; against Melanocortin receptor 5; in assay [5]) was “Not Active” in each case. The IC50 result (in assay [6]; against Adenosine receptor A1) was “Not Active” throughout. The Ki entry in assay [3], in assay [5] and in assay [6] was “Not Active” in each case.

Turning to `CNCCCN1c2ccccc2CCc2ccccc21` [DESIPRAMINE], the IC50 result (in assay [1]; in assay [2]; in assay [3]; in assay [4]; against Melanocortin receptor 5; in assay [5]) was “Not Active” in each case. In addition, the IC50 result (in assay [6]; against Adenosine receptor A1) was “Not Active” in each case. Also, the Ki result in assay [3], in assay [5] and in assay [6] was “Not Active” throughout.

For the molecule `O=c1oc2ccccc2c(O)c1Cc1c(O)c2ccccc2oc1=O` [DICUMAROL], the IC50 was 4.09 µM in assay [1] (read-out: IC50); “Not Active” in assay [2]; “Not Active” in assay [3]; “Not Active” in assay [4]; “Not Active” on Melanocortin receptor 5; “Not Active” in assay [5]. In addition, the IC50 entry (in assay [6]; against Adenosine receptor A1) was “Not Active” each time. Moreover, the Ki result in assay [3], in assay [5] and in assay [6] was “Not Active” throughout.

Regarding `C[C@H]1O[C@@H](O[C@H]2[C@@H](O)C[C@H](O[C@H]3[C@@H](O)C[C@H](O[C@H]4CC[C@@]5(C)[C@H](CC[C@@H]6[C@@H]5C[C@@H](O)[C@]5(C)[C@@H](C7=CC(=O)OC7)CC[C@]65O)C4)O[C@@H]3C)O[C@@H]2C)C[C@H](O)[C@@H]1O` [DIGOXIN], the IC50 entry (in assay [1]; in assay [2]; in assay [3]; in assay [4]; on Melanocortin receptor 5; in assay [5]) was “Not Active” throughout. The half-inhibitory concentration (IC50) entry (in assay [6]; against Adenosine receptor A1) was “Not Active” in each case. Further, the Ki result in assay [3], in assay [5] and in assay [6] was “Not Active” in each case.

For the molecule `CC(C)[C@@]1(NC(=O)[C@@H]2C[C@@H]3c4cccc5[nH]cc(c45)C[C@H]3N(C)C2)O[C@@]2(O)[C@@H]3CCCN3C(=O)[C@H](Cc3ccccc3)N2C1=O.CS(=O)(=O)O` [DIHYDROERGOCRISTINE MESYLATE], the half-maximal inhibitory concentration (IC50) result (in assay [1]; in assay [2]; in assay [3]; in assay [4]; at Melanocortin receptor 5; in assay [5]) was “Not Active” each time. Besides, the IC50 result (in assay [6]; against Adenosine receptor A1) was “Not Active” each time. Further, the Ki entry in assay [3], in assay [5] and in assay [6] was “Not Active” each time.

Turning to `CC(=O)O[C@@]12CO[C@@H]1C[C@H](O)[C@@]1(C)C(=O)[C@H](O)C3=C(C)[C@@H](OC(=O)[C@H](O)[C@@H](NC(=O)OC(C)(C)C)c4ccccc4)C[C@@](O)([C@@H](OC(=O)c4ccccc4)[C@H]21)C3(C)C.O.O.O` [DOCETAXEL], the IC50 entry (in assay [1]; in assay [2]; in assay [3]; in assay [4]; at Melanocortin receptor 5; in assay [5]) was “Not Active” in each case. For the same molecule, the IC50 entry (in assay [6]; at Adenosine receptor A1) was “Not Active” throughout. For the same molecule, the Ki entry in assay [3], in assay [5] and in assay [6] was “Not Active” in each case.

`COc1cc2nc(N3CCN(C(=O)C4COc5ccccc5O4)CC3)nc(N)c2cc1OC` (stereo not given) [DOXAZOSIN]: the IC50 entry (in assay [1]; in assay [2]; in assay [3]; in assay [4]; against Melanocortin receptor 5; in assay [5]) was “Not Active” in each case. Also, the IC50 result (in assay [6]; against Adenosine receptor A1) was “Not Active” each time. The Ki entry in assay [3], in assay [5] and in assay [6] was “Not Active” each time.

With `C[C@H]1c2cccc(O)c2C(=O)C2=C(O)[C@]3(O)C(=O)C(C(N)=O)=C(O)[C@@H](N(C)C)[C@@H]3[C@@H](O)[C@@H]21.O` [DOXYCYCLINE], the IC50 entry (in assay [1]; in assay [2]; in assay [3]; in assay [4]; on Melanocortin receptor 5; in assay [5]) was “Not Active” each time. The IC50 entry (in assay [6]; against Adenosine receptor A1) was “Not Active” throughout. In addition, the Ki result in assay [3], in assay [5] and in assay [6] was “Not Active” each time.
